Data from publication PMC8398847, “Isavuconazole: Thermodynamic Evaluation of Processes Sublimation, Dissolution and Partition in Pharmaceutically Relevant Media” (Molecules, 2021).
“And” between values parts separate entries of the source, which are not always exact repeats. Equal values may be shown once.

Assay: Vapor pressure by transpiration (inert gas-carrier transfer) method; sublimation thermodynamic functions
Format: physicochemical
Details: for lnp: p in Pa
Method: The thermodynamic functions of sublimation were calculated as the fitting coefficients of the Clarke and Glew equation [17]:(1) Rlnp/p^0=ΔcrgGm°(θ)/θ+ΔcrgHm°(θ)(1/θ−1/T)+ΔcrgCp,m°(θ)(θ/T−1+lnT/θ) where ΔcrgHm°(θ) is the standard molar sublimation enthalpy, ΔcrgGm°(θ) is the standard molar Gibbs energy of sublimation, and ΔcrgCp,m°(θ) is the difference between the constant pressure standard molar heat capacity Cp,m°(g) of the gaseous compound and the constant pressure standard molar heat capacity Cp,m°(cr) of the crystalline compound. The value is the arbitrary reference temperature θ = 298.15 K; p^0 = 10^5 Pa is the reference pressure.
The transpiration method was used for the sublimation experiment. A stream of an inert gas (nitrogen) was passed over a sample at the constant temperature and flow rate; saturation of the gas with the substance vapor was achieved by low transpiration rate of gas. Then, the sublimated quantity of condensed vapor was determined. The volume of the inert gas and the amount of the sublimated material were used for calculation the vapor pressure over the sample of compound at this temperature. The following procedure was used for determination the amount of sublimed substance. The condensed sample was dissolved in a known volume of solvent Vsol. The mass of the substance was determined by the measurement of absorbance A of its solution (spectrophotometer Cary-50, Varian, Palo Alto, CA, USA, Software Version 3.00 (339)). According to the Lambert–Beer law the concentration of the solution c (mol·L^−1) can express knowing a value of the extinction coefficient ε (l·mol^−1·cm^−1) of the studied compound dissolved in the solvent and an absorbing path length (l):A = εcl(5) where l is an absorbing path length. Calculation the mass of sublimed compound was performed according to the equation:m = cVsolM(6)
M is the molar mass of the studied substance.
The vapor pressure p at each temperature was determined from the amount of the substance collected within a known time:p = mRTa/VM(7) where V is the volume of the gaseous nitrogen evaluated from the time measurement and the flow rate at the flow meter temperature Ta and the atmospheric pressure. Uncertainties for transpiration experiment parameters (T, m, Ta, V) are reported as standard deviations (Table 1). The combined standard uncertainty of vapor pressure measurements were estimated taking into account uncertainties of all variables involved in eq 7.
The details of equipment and experimental procedure are given in [33]. The sublimation technique was tested with benzoic acid as standard. The experimental vapor pressure values were obtained in the temperature interval of (307–385) K and were in good agreement with the results of studies within the limits of experimental error (Figure S7). The standard sublimation enthalpy of benzoic acid measured by us was 90.5 ± 0.3 kJ·mol^−1 and consistent with recommended by IUPAC value—89.7 ± 0.5 kJ·mol^−1 [38]. Each experiment at fixed temperature was repeated three times with the standard deviation of up to 5%.

[1] = 298.15 K, experimental, Clarke and Glew equation

Compound: C[C@@H](c1nc(-c2ccc(C#N)cc2)cs1)[C@](O)(Cn1cncn1)c1cc(F)ccc1F [IVZ, Isavuconazole]
- standard molar Gibbs energy of sublimation ΔcrgGm°(298.15 K) [1]: 16.5 ± 0.048 kcal/mol
- standard molar enthalpy of sublimation ΔcrgHm°(298.15 K) [1]: 33.01 kcal/mol and 33.01 ± 0.12 kcal/mol
- standard molar Gibbs energy of sublimation ΔcrgGm°(298.15 K) (298.15 K, experimental, Clarke and Glew equation, listed as Isavuconazole): 16.5 kcal/mol
- vapor pressure 10^3 p (365.15 K): 1.95 Pa
- saturated vapor pressure values (365.15–383.15 K): 0.001–0.01 Pa
- vapor pressure 10^3 p (367.15 K): 2.50 Pa
- vapor pressure 10^3 p (369.15 K): 3.19 Pa
- vapor pressure 10^3 p (371.15 K): 4.02 Pa
- vapor pressure 10^3 p (372.15 K): 4.55 Pa
- vapor pressure 10^3 p (373.15 K): 5.11 Pa
- vapor pressure 10^3 p (374.15 K): 5.72 Pa
- vapor pressure 10^3 p (376.15 K): 7.22 Pa
- vapor pressure 10^3 p (378.15 K): 8.83 Pa
- vapor pressure 10^3 p (379.15 K): 9.83 Pa
- vapor pressure 10^3 p (380.15 K): 11.19 Pa
- vapor pressure 10^3 p (381.15 K): 12.30 Pa
- vapor pressure 10^3 p (382.15 K): 13.79 Pa
- vapor pressure 10^3 p (383.15 K): 15.37 Pa
- lnp (365.15 K): −6.241
- lnp (367.15 K): −5.991
- lnp (369.15 K): −5.749
- lnp (371.15 K): −5.515
- lnp (372.15 K): −5.393
- lnp (373.15 K): −5.277
- lnp (374.15 K): −5.163
- lnp (376.15 K): −4.931
- lnp (378.15 K): −4.729
- lnp (379.15 K): −4.622
- lnp (380.15 K): −4.493
- lnp (381.15 K): −4.398
- lnp (382.15 K): −4.283
- lnp (383.15 K): −4.175
- ΔcrgSm°(298.15 K) (sublimation, 298.15 K): 230.4 ± 4.6 J·mol^−1·K^−1
- ΔcrgCp,m° (sublimation, gas minus crystal heat capacity): −71.8 J·mol^−1·K^−1
